Data set [1] deals with HSV-1. The data set can be described thus: HSV-1 skin infection in guinea pig, topical treatment. The conditions noted are these: 30 μl of 60 mg/ml in DMSO, five times per day for six days. The data set is classed as in vivo. As to the method: The drug M4N was also tested in inhibition of HSV-1 replication in skin infections in guinea pigs. Guinea pig skin was pinched with needles and HSV-1 […] was applied topically to infect each pricked area. M4N was then applied to the pricked infected area following infection daily for 6 days.
Six areas of bared back skin of a guinea pig were punched sterilely with a 5=DIN needle. Two areas were infected with HSV-1 (HSV-C, culture supernatant, or isolated HSV in saline, HSV-SC). The other four areas were infected with HSV-SC.

In data set [2] the test system is HSV-1. The conditions noted are these: cited from earlier work; for pIC50: infected Vero cells.
The test system of a further data set is HSV-2. To be noted: infected Vero cells; fourth passage of HSV-2; cited from earlier work.
The target in data set [3] is Sp1-167D / HIV Sp1-binding sites (Homo sapiens, UniProt P08047). The data set can be described thus: Gel mobility-shift analysis (EMSA) of Sp1-167D binding to HIV Sp1 DNA template. To be noted: 0.25 to 1.75 mM. As to the method: FIG. 13. Electrophoretic mobility shift assay (EMSA) of G4N interaction with the HIV Sp1-binding sites (−87 to −49). (A) G4N inhibition of Sp1-167D binding to ^32P labeled HIV Sp1 DNA template. […] Lane 1, template alone; lanes 2-4, template plus increasing amounts of Sp1-167D (0.075, 0.150, 0.300 μg); lanes 5-8, template incubated in reaction buffer containing 1.2 mM G4N followed by challenge with increasing amounts of Sp1-167D (0.075, 0.150, 0.300 μg), lane 8 received no Sp1-167D. (D) Plot of diminishing Sp1-167D/DNA complex band intensities in response to increasing concentrations of G4N used in (A) ---•--- and (B) —•—. The gels used were 5% non-denaturing polyacrylamide with each lane receiving 5 μl of each reaction volume as described in experimental section and Ref. [1].
Sp1-167D / HIV Sp1-binding sites, sequence (P08047 619-785 limits assumed): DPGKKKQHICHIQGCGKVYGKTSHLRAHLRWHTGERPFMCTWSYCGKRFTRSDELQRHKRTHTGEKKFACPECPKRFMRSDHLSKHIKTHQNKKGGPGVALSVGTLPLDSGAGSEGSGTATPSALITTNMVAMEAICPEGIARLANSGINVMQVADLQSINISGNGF
Sp1 family proteins induce bends toward the major groove of DNA upon binding (33). The zinc finger domain of the Sp1 protein is responsible for the binding of the GC Box sequence 5′-GGGGCGGGG-3′. From computational analysis, it was determined that G4N, the aminoester derivative of NDGA, could form a stable complex with such a sequence in the major groove. To determine whether G4N can serve as an Sp1 blocker as well as an Sp1 displacer, we performed Sp1/enhancer interaction studies in the presence or absence of G4N by the gel mobility-shift analysis using only the […] binding domain of Sp1 for testing. […]
On the technique in general: A gel shift assay detects complexes by their altered migration in electrophoresis.

For data set [4], the system named is HIV LTR promoter (Tat-transactivation). The data set can be described thus: Tat-transactivation of HIV promoter activity in Cos cells, SEAP assay. Format: cell-based. The conditions noted are these: read-out: IC50 for inhibition of HIV Tat-regulated transactivation. From the text:
As reported previously, methylated NDGA derivatives can block Sp1 binding to the enhancer sites of a variety of viral promoters including HIV, ICP4 of HSV, E6/E7 gene of HPV (8, 9, 10). We further tested the G4N effect on the Tat-transactivation of HIV promoter activity in Cos cells by the SEAP assay as previously described. […] There were 60-fold or more increase in SEAP expression when Cos cells were cotransfected with the CMV promoter driven Tat gene (8). Such Tat-driven ransactivation of the HIV LTR promoter activity was previously shown to be Sp1 regulated (7, 8). In the presence of G4N, we observed inhibition of HIV transactivation in a dose-dependent fashion (FIG. 14). […]. The differences perhaps are due to the chemical nature of the test compounds affecting the drug uptake to the cells.

For a further data set, the system named is SIVmac 239. The data set can be described thus: SIV production in 174×CEM cells, p27 antigen capture ELISA. Format: cell-based. As to the method: FIG. 15. SIV production with presence of G4N. 10^7 […], a human T-cell lymphoma cell line, were mixed with a 24 hrs. harvest stock of SIV mac 239 (4 ng of p27) for two hours at 37. Cells were resuspended and 1×10^5 cells in 100 μl medium were added to each well of three 96-well plates. Various concentrations of G4N from a freshly made stock were prepared and added to each of the six designed well. Culture supernatants were collected after four and eight days for viral production analysis. Viral production was assayed by a modified p27 capsid protein antigen capture ELISA as described in experimental section.
Both HIV-1 and SIV are retroviruses that require integration into the host genome to complete their replication. Both rely on host transcription factors for their proviral transcriptions. Sp1 plays a central role for such expression in these two viruses sharing an almost identical mode of transcription regulation. […] There was no SIV production detected using G4N in concentrations above […]. At G4N concentrations below 2.5 CIM, SIV production was detected (FIG. 15) in culture supernatants from 4th and 8th days post infected cultures as compared to viral production in the absence of the drug.
Background: An ELISA detects its analyte on a solid surface through an enzyme-linked reagent.

Another data set concerns 174×CEM cells. Format: cell-based, human. From the text: Both HIV-1 and SIV are retroviruses that require integration into the host genome to complete their replication. Both rely on host transcription factors for their proviral transcriptions. Sp1 plays a central role for such expression in these two viruses sharing an almost identical mode of transcription regulation. In anticipation of using SIV infected rhesus monkeys as animal model for testing the antiviral effect of G4N, we have studied and compared the G4N effect in inhibition of SIV in 174×CEM cells with that of HIV in H9 cells. Cellular toxicities of G4N in these two cell lines were also examined. For SIV inhibition study, 10^7 174×CEM cells were mixed with high titer stock of SIVmac 239 at 37° C. for two hours and then washed twice with cold PBS buffer to remove the unabsorbed virus. Cell suspension was aliquoted into each well of three 96 well plates. Various concentrations of the G4N solutions were made from freshly prepared stock and aliquoted separately and each to six wells in a column of one 96 well plate. Culture supernatants were collected every four days post infection. […] There was no SIV production detected using G4N in concentrations above […]. At G4N concentrations below 2.5 CIM, SIV production was detected (FIG. 15) in culture supernatants from 4th and 8th days post infected cultures as compared to viral production in the absence of the drug.

In another data set the test system is HIV-1RTMF. In words: HIV-1 production in H9 cells, p24 antigen capture ELISA. Format: cell-based. The conditions noted are these: p24, AZT resistant strain, read-out: IC50 for the inhibition of HIV-1 RTMF. As to the method: FIG. 16. Inhibition of HIV p24 antigen production in H9 cells by G4N. Inhibition in percentage was calculated by comparing p24 level from an average of two duplicate cultures of G4N treated and not treated H9 cells 9 days following viral infection with a AZT resistant HIV strain, HIV-1RTMF.
(§1) A similar experiment was also carried out for the study of inhibition of HIV-1 by G4N in H9 cells. The H9 cells were subcultured at 1×10^5/ml and were infected with an AZT resistant strain of HIV-1(HIV-1RTMF). G4N in different concentrations was added two hours after infection. Fresh medium change was made every four days. Cell growth in the presence of G4N was monitored carefully during the nine-day experimental period. Viral production was assayed by a p24 core antigen capture ELISA. […] Again, there was no detectable toxicity to uninfected H9 cells within the range of the assay (and below 250 μM).

The subject of a further data set is H9 cells. Format: cell-based. As to the method: as §1
The nature of data set [5]: Toxicity studies of G4N in mice. To be noted: for Mortality: 6 days.
Procedure: C57BL-16NCR female mice from NCI were used in this experiment.
Injections of 0.05 ml for group 1, 0.1 ml for groups 2 and 4, and 0.2 ml for group 3 per treatment were made for a period of 6 days. Experiments lasted seven days. Body weights were determined before and after six days of injection.
Another data set has as its system mammalian cells. To be noted: low concentrations (10 μM); cited from earlier work.

The structures appear in SMILES notation. pIC50: −log10 of the molar value. Like-named read-outs stand apart in the source and are kept apart here.

As usually defined, the pIC50 is the IC50 on a negative log10 scale, so that one unit is a factor of ten. Take `Nc1nc2c(ncn2COCCO)c(=O)[nH]1` [ACV, acycloguanosine]: in the data set with HSV-1 [1], the “blisters in HSV-1 infected skin areas at day 6” value was “no blisters”. Further, the “drop of selective index, S.I. (TC50/IC50)” value in the data set on HSV-1 [2] (following the viral passages in Vero cells) is 60 fold. Further, the pIC50 with HSV-1 [2] (first viral passage) was 5.15; in the data set with HSV-1 [2] (tenth passage of HSV-1), 3.35; in the data set on HSV-2, under 4.06.
Take `C[C@H](Cc1ccc(OC(=O)CN(C)C)c(OC(=O)CN(C)C)c1)[C@@H](C)Cc1ccc(OC(=O)CN(C)C)c(OC(=O)CN(C)C)c1.Cl.Cl.Cl.Cl` [G4N, meso-1,4-Bis [3,4-(dimethylaminoacetoxy)phenyl]-(2R,3S)-dimethylbutane Chloride Salt]: the “blocking and displacement of Sp1-167D binding to DNA” value in [3] is recorded as “able keep DNA from interacting with Sp1-167D protein”. Moreover, the pIC50 in data set [4] was 4.44; in the data set on HIV-1RTMF, 4.92. The “concentrations at which no SIV production was detected” value with SIVmac 239 is listed as “above 5 CIM”. For the same molecule, in the data set on SIVmac 239 (4th and 8th days post infection), the “concentrations at which SIV production was detected” value was “below 2.5 CIM”. In addition, in the data set on 174×CEM cells, the “concentration with no toxic effect on uninfected cells” value was at most 250 µM. Moreover, the “concentration with no detectable toxicity to uninfected cells” value in the data set with H9 cells was “below 250 μM”. In addition, the Mortality in [5] (187.5 mg/kg, Subcutaneous, 2× per day) is recorded as 0/3; in data set [5] (375 mg/kg, IV, 2× per day), 0/2; in [5] (375 mg/kg, Subcutaneous, 1× per day), 0/3; in data set [5] (750 mg/kg, Subcutaneous, 1× per day), 1/4. In data set [5] (before and after six days of injection), the “body weight changes during the experimental period” value is recorded as “No significant weight changes”.
As to `COc1cc(C[C@H](C)[C@H](C)Cc2ccc(O)c(O)c2)ccc1O` [Ma1.4, 3-O-methyl NDGA, reference compound], the negative logarithm of the IC50 (pIC50) in [4] is 4.60.
`CC(Cc1ccc(O)c(O)c1)C(C)Cc1ccc(O)c(O)c1` (stereo not shown) [NDGA, nordihydroguaiaretic acid]: in the data set on mammalian cells, the “apoptosis in mammalian cells” value is reported as “induce apoptosis”.

These data come from patent publication US8318815B2, “Method for treatment of tumors using nordihydroguaiaretic acid derivatives” (priority 1999, dated 2012).
